Assay results from ChEMBL document CHEMBL5291721, “A preclinical secondary pharmacology resource illuminates target-adverse drug reaction associations of marketed drugs” (Nat Commun, 2023).

Columns and labels:
[1] = molecular target: Kappa-type opioid receptor (Homo sapiens, UniProt P41145)
[2] = molecular target: T1, Alpha-2B adrenergic receptor (Homo sapiens, UniProt P18089)
T1 sequence (P18089 whole entry): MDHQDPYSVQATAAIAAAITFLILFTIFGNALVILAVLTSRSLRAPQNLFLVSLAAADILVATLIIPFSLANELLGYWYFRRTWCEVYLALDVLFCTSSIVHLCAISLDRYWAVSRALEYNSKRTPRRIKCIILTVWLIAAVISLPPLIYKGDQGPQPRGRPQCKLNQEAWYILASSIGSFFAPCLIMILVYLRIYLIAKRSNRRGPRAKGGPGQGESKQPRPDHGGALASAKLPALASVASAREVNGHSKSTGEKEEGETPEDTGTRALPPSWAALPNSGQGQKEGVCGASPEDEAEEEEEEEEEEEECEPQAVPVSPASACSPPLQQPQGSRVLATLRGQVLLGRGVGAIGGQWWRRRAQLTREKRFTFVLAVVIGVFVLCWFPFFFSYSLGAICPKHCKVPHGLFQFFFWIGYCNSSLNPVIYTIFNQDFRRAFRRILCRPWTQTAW

[3] = molecular target: Beta-2 adrenergic receptor (Homo sapiens, UniProt P07550)
Sequence of Beta-2 adrenergic receptor (P07550 whole entry): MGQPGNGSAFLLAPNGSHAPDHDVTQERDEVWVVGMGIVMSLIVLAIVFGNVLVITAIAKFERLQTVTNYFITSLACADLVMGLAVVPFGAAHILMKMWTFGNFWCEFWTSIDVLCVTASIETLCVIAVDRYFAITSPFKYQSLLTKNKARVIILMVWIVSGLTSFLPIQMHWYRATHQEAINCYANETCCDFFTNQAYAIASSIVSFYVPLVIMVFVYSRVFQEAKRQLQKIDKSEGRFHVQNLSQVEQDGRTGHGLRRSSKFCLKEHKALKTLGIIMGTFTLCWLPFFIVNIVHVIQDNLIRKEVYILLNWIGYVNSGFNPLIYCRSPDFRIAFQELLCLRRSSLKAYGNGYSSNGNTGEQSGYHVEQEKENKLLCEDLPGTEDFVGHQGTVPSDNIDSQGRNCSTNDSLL

[4] = molecular target: 5-hydroxytryptamine receptor 2B (Homo sapiens, UniProt P41595); type: functional, cell-based
Sequence of 5-hydroxytryptamine receptor 2B (P41595 whole entry): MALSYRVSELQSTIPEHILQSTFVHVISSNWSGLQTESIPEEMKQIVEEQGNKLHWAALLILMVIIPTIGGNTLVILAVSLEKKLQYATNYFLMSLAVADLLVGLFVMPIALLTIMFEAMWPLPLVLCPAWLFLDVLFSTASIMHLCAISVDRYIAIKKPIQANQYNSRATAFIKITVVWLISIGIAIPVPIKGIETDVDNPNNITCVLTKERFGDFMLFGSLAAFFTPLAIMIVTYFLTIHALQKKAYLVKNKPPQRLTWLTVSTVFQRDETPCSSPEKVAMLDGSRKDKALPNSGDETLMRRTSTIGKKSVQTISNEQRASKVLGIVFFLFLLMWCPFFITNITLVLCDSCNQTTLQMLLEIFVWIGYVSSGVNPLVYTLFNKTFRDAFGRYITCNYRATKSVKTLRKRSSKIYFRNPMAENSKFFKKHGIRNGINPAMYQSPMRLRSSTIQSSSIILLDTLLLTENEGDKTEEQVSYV

[5] = molecular target: T2, Alpha-1A adrenergic receptor (Homo sapiens, UniProt P35348); type: functional, cell-based
T2 sequence (P35348 whole entry): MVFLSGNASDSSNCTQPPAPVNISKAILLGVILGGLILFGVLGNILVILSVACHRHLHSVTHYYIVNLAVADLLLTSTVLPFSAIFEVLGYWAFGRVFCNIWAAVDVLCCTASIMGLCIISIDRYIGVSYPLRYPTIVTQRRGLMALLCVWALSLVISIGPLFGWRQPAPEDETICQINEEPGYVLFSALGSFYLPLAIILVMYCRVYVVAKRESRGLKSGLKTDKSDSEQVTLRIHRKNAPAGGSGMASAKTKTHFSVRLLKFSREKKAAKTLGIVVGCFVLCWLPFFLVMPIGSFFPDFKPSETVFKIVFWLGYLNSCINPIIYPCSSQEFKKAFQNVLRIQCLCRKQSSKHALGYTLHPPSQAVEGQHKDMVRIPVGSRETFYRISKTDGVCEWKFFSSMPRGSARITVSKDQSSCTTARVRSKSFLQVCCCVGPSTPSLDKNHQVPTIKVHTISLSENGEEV

Estrogen receptor = molecular target: T3, Estrogen receptor (Homo sapiens, UniProt P03372)
T3 sequence (P03372 whole entry): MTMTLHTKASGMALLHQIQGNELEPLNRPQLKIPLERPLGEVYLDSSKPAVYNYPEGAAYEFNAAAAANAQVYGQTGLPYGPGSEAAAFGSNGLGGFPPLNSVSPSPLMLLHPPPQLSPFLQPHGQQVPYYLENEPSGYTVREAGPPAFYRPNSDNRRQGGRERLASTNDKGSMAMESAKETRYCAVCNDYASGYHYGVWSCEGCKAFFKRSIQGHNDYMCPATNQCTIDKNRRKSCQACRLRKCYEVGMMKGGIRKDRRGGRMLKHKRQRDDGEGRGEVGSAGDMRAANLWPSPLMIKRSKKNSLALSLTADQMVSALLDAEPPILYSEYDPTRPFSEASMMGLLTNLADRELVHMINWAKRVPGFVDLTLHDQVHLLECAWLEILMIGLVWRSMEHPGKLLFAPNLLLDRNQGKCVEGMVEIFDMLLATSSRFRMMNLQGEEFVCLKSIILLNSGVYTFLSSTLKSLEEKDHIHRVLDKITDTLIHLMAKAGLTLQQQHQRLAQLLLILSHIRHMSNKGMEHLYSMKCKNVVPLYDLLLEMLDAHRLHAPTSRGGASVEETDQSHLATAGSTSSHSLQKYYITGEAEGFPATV

Thromboxane A2 receptor = molecular target: T4, Thromboxane A2 receptor (Homo sapiens, UniProt P21731); type: functional, cell-based
T4 sequence (P21731 whole entry): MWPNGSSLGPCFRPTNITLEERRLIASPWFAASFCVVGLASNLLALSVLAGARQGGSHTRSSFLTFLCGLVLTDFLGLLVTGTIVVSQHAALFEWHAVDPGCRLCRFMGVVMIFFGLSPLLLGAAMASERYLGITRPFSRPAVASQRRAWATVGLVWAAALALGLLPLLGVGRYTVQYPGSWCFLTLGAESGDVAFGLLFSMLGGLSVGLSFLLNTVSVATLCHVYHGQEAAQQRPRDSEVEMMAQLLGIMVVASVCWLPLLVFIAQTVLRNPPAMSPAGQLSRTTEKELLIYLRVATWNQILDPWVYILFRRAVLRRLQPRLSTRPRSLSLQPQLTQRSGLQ

[6] = molecular target: cGMP-inhibited 3',5'-cyclic phosphodiesterase 3A (Homo sapiens, UniProt Q14432); type: functional
Sequence of cGMP-inhibited 3',5'-cyclic phosphodiesterase 3A (Q14432 whole entry): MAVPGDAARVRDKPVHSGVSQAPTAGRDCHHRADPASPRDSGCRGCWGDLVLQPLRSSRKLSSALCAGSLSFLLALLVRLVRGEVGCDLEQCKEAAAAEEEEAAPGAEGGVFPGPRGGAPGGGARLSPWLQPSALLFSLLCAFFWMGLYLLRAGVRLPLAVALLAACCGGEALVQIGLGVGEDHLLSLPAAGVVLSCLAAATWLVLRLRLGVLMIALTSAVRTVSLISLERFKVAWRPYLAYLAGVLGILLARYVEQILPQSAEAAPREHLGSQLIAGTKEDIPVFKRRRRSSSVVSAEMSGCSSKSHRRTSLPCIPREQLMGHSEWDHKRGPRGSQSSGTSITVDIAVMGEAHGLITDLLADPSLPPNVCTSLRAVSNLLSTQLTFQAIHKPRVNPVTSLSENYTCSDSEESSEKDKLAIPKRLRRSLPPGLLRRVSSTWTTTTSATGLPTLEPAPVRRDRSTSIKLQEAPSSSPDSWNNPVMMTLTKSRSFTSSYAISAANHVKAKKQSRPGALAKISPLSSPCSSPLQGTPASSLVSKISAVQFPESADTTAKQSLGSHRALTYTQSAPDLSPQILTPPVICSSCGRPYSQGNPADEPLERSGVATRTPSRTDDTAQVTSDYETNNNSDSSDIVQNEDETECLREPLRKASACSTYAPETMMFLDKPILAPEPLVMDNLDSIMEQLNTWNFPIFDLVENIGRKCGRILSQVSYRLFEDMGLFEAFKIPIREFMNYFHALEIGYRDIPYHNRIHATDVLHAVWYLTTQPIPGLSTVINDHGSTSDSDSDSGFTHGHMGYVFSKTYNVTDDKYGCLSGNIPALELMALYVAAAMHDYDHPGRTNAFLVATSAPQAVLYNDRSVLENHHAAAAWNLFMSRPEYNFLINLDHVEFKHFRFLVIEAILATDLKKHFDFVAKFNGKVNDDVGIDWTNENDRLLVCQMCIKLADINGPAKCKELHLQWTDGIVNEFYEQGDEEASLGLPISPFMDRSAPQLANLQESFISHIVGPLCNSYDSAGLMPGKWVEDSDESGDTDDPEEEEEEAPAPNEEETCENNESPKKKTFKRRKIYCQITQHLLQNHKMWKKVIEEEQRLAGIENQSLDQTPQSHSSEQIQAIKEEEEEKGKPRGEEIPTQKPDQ

Adenosine receptor A3 = molecular target: T5, Adenosine receptor A3 (Homo sapiens, UniProt P0DMS8)
T5 sequence (P0DMS8 whole entry): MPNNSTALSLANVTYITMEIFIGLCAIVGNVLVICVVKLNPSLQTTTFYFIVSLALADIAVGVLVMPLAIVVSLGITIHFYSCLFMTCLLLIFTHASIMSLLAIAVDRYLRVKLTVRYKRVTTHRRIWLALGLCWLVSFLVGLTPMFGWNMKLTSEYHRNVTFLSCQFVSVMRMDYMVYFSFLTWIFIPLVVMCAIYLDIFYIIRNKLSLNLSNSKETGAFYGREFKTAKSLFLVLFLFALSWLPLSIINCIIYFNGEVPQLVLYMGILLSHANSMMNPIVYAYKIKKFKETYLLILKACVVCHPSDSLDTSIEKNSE

[7] = molecular target: Sodium-dependent noradrenaline transporter (Homo sapiens, UniProt P23975)
Sequence of Sodium-dependent noradrenaline transporter (P23975 whole entry): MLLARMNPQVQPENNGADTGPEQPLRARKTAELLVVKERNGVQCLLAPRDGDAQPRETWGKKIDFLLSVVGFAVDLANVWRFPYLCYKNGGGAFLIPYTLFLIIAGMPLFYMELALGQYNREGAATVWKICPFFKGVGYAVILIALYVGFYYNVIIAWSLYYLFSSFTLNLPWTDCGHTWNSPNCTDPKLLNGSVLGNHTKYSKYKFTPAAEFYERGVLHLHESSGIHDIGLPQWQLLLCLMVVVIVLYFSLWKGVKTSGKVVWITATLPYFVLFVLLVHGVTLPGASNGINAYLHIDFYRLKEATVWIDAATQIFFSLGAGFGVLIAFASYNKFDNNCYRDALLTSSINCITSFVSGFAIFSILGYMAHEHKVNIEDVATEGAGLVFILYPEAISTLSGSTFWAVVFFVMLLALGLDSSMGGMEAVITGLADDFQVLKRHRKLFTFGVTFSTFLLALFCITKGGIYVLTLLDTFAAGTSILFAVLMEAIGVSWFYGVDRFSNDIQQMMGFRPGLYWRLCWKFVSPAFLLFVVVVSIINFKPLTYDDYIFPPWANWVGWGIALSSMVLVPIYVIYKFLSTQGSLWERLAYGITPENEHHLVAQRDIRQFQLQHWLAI

[8] = molecular target: Prostaglandin G/H synthase 1 (Homo sapiens, UniProt P23219); type: functional
Sequence of Prostaglandin G/H synthase 1 (P23219 whole entry): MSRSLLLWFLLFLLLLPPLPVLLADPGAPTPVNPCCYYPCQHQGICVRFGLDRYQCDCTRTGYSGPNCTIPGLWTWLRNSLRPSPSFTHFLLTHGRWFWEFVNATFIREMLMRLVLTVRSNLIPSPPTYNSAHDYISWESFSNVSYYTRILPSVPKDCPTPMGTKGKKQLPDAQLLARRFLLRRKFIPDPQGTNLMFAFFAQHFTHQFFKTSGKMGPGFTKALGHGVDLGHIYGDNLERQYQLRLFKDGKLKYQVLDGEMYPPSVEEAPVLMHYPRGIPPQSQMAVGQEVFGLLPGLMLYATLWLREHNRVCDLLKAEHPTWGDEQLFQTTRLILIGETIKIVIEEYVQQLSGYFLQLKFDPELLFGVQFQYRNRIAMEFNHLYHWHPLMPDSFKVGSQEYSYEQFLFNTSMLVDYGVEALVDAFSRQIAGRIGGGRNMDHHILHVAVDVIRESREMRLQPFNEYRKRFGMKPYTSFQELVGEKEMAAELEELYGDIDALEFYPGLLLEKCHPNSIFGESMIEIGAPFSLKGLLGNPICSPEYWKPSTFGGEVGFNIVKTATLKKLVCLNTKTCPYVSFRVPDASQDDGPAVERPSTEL
Note: assay procedure not described here.

Sequence of Kappa-type opioid receptor (P41145 whole entry): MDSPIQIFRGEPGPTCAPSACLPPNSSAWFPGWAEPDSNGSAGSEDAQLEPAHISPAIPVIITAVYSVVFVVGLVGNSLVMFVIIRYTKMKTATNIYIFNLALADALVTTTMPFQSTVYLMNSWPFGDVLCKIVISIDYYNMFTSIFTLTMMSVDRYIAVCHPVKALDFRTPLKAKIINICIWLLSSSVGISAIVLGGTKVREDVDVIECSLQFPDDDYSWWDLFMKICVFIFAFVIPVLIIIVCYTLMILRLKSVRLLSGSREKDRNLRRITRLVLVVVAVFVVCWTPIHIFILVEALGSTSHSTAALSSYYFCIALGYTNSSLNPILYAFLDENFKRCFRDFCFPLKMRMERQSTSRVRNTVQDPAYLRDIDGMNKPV

Molecule `Oc1ccc2c(c1)CC[C@H](c1ccccc1)[C@@H]2c1ccc(OCCN2CCCC2)cc1` [LASOFOXIFENE] has an AC50 [1] of 0.0849 µM and an AC50 [2] of 8.2 µM.

`Clc1ccc2c(N3CCN(CCCN4CCN(c5ccnc6cc(Cl)ccc56)CC4)CC3)ccnc2c1` [PIPERAQUINE] was tested, and the AC50 [3] was over 30 µM, the AC50 [1] was 17 µM and the AC50 [4] was over 30 µM. It also gave an AC50 [5] of over 30 µM, an AC50 [2] of over 30 µM and an AC50 (Estrogen receptor) of over 30 µM.

With `CCC(C)C1(CC)C(=O)NC(=O)NC1=O` (centres undefined) [BUTABARBITAL] the AC50 [4] was over 30 µM, the AC50 [5] was over 30 µM and the AC50 (Estrogen receptor) was over 30 µM.

`CC(C(=O)O)c1ccc(CC2CCCC2=O)cc1` (centres undefined) [LOXOPROFEN] gave an AC50 [3] of over 30 µM, an AC50 [1] of 0.66 µM and an AC50 [4] of over 30 µM. For the same molecule, the AC50 [5] was over 30 µM and the AC50 (Estrogen receptor) was over 30 µM.

Molecule `CC(=O)N[C@@H](CS)C(=O)O` [ACETYLCYSTEINE] has an AC50 [1] of over 30 µM, an AC50 [4] of over 30 µM and an AC50 [5] of over 30 µM. For the same molecule, the AC50 [2] was over 10 µM and the AC50 (Estrogen receptor) was over 30 µM.

`Cc1ccccc1N1CCN(CCc2nnc3n2CCCC3)CC1` [DAPIPRAZOLE] gave an AC50 (Thromboxane A2 receptor) of over 30 µM, an AC50 [6] of over 30 µM and an AC50 (Adenosine receptor A3) of over 30 µM. It also gave an AC50 [7] of over 30 µM and an AC50 [8] of over 30 µM.

With `COc1cc(N)c(Cl)cc1C(=O)NC1CCN(Cc2ccccc2)CC1` [CLEBOPRIDE] the AC50 [3] was over 30 µM, the AC50 [1] was 22 µM and the AC50 [4] was over 30 µM. For the same molecule, the AC50 [5] was over 30 µM, the AC50 [2] was 18 µM and the AC50 (Estrogen receptor) was over 30 µM.

Molecule `C[C@]12CC[C@@H]3c4ccc(O)cc4C[C@@H](CCCCCCCCC[S+]([O-])CCCC(F)(F)C(F)(F)F)[C@H]3[C@@H]1CC[C@@H]2O` (some centres undefined) [FULVESTRANT] has an AC50 [1] of over 30 µM, an AC50 [4] of over 30 µM and an AC50 [5] of over 30 µM. The AC50 [2] was over 30 µM.

`Cc1cccc(N2CC(CO)OC2=O)c1` (centres undefined) [TOLOXATONE] gave an AC50 [1] of over 30 µM, an AC50 [4] of over 30 µM and an AC50 [5] of over 30 µM. It also gave an AC50 [2] of over 30 µM.

Work on `C=C1CC[C@H](O)C/C1=C/C=C1\CCC[C@]2(C)[C@@H]([C@H](C)/C=C/[C@H](C)C(C)C)CC[C@@H]12` [ERGOCALCIFEROL] yielded an AC50 (Thromboxane A2 receptor) of over 30 µM, an AC50 [6] of over 30 µM and an AC50 [7] of over 30 µM. For the same molecule, the AC50 [8] was 20.3 µM.

In the case of `O=[N+]([O-])c1ccc(O)c2ncccc12` [NITROXOLINE], the AC50 [1] is reported as 9.3 µM, the AC50 (Thromboxane A2 receptor) is reported as over 30 µM and the AC50 [4] is reported as over 30 µM. The AC50 [6] was over 30 µM, the AC50 [5] was over 30 µM and the AC50 [2] was 8.8 µM. The AC50 [7] was over 30 µM and the AC50 [8] was over 30 µM.

In the case of `COCC1=C(C(=O)O)N2C(=O)[C@@H](NC(=O)/C(=N\OC)c3csc(N)n3)[C@H]2SC1` [CEFPODOXIME], the AC50 [3] is reported as over 30 µM, the AC50 [1] is reported as over 30 µM and the AC50 [4] is reported as over 30 µM. The AC50 [5] was over 30 µM, the AC50 [2] was over 30 µM and the AC50 (Estrogen receptor) was over 30 µM.

Work on `CN(C)CCCNc1c2ccccc2nc2cccc([N+](=O)[O-])c12` [NITRACRINE] yielded an AC50 [3] of over 30 µM, an AC50 [1] of over 30 µM and an AC50 [4] of over 30 µM. The AC50 [5] was over 30 µM, the AC50 [2] was 22 µM and the AC50 (Estrogen receptor) was over 30 µM.

In the case of `C=CCNc1nc(NCC=C)nc(N2CCN(C(c3ccc(F)cc3)c3ccc(F)cc3)CC2)n1` [ALMITRINE], the AC50 [3] is reported as over 30 µM, the AC50 [1] is reported as 18 µM and the AC50 [4] is reported as over 30 µM. The AC50 [2] was over 30 µM and the AC50 (Estrogen receptor) was over 30 µM.
